Assay results taken from US9708336B2, “Metallo-beta-lactamase inhibitors” (priority 2014, dated 2017).
Where two headings read alike, the source gives them in different places.

Legend:
NDM-1 = NDM-1 (Klebsiella pneumoniae, UniProt C7C422); assay: biochemical; assay type: biochemical; settings: read-out: NDM-1 IC50
Procedure: Enzyme Activity: Determination of IC50
The Class B enzyme activities were measured in the presence of the test inhibitor in a fluorescence assay against a commercially available substrate consisting of a cephalosporin core linking 7-hydroxycoumarin to fluorescein (CCF2-FA). The enzyme (NDM-1, IMP-1 or VIM-1) and the substrate were diluted in 100 mM KH2PO4 buffer (pH 7) containing 0.005% Tween-20 and 10 μM ZnSO4. […] The test inhibitor was dissolved in dimethylsulfoxide and diluted 1:50 in the assay, resulting in a final concentration range of 20 uM to 0.00063 uM. In a 384-well microplate, the test inhibitor was incubated with the metallo-β-lactamase enzyme and the substrate for 2 hours at 25° C. Fluorescence at 460 nm following excitation at 405 nm was measured. The IC50 value was determined from semi-logarithmic plots of enzyme inhibition versus inhibitor concentration, with a curve generated using a 4-parameter fit.

IMP-1 = IMP-1 (Serratia marcescens, UniProt P52699); assay: biochemical; assay type: biochemical; settings: read-out: IMP-1 IC50
VIM-1 = VIM-1 (Pseudomonas aeruginosa (strain ATCC 15692 / DSM 22644 / CIP 104116 / JCM 14847 / LMG 12228 / 1C / PRS 101 / PAO1), UniProt A0A0F7KYQ8); assay: Enzyme activity: determination of IC50, fluorescence assay with CCF2-FA substrate (VIM-1); assay type: biochemical
[1] = test system: Escherichia coli expressing NDM-1 (CLB30016); assay: Antibiotic potentiation activity: synergistic concentration (MITC95) with imipenem, OD600 growth; assay type: cell-based; settings: for Escherichia coli expressing NDM-1 (CLB 30016) MITC95: concentration giving 95% inhibition of bacterial growth
Outline: (§1)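 Absorbance after a 22–24 h, 35 °C incubation served as the read-out. Wells held bacteria (saline suspension diluted 1:100 into 1.1× CAMHB), imipenem at 4 μg/ml final or optionally 1 μg/ml, and test compound.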

[2] = test system: Klebsiella pneumoniae expressing VIM-1 (IHMA599644); assay: as above; assay type: cell-based; settings: for Klebsiella pneumoniae expressing VIM-1 (IHMA 599644) MITC95: concentration giving 95% inhibition of bacterial growth
Outline: as §1

[3] = test system: Serratia marcescens expressing IMP-1 (CL5741); assay: as above; assay type: cell-based; settings: for Serratia marcescens expressing IMP-1 (CL5741) MITC95: concentration giving 95% inhibition of bacterial growth
Outline: as §1

[4] = NDM-1 enzyme, CCF2-FA substrate
[5] = IMP-1 enzyme, CCF2-FA substrate
[6] = VIM-1 enzyme, CCF2-FA substrate, read-out: VIM-1 IC50
[7] = (CLB30016, NDM-1), 95% growth inhibition
[8] = Klebsiella pneumoniae IHMA599644 (VIM-1), 95% growth inhibition
[9] = Serratia marcescens CL5741 (IMP-1), 95% growth inhibition
[10] = fluorescence assay with CCF2-FA substrate
[11] = fluorescence assay with CCF2-FA substrate, read-out: VIM-1 IC50
[12] = NDM-1 enzyme, CCF2-FA fluorescence assay
[13] = IMP-1 enzyme, CCF2-FA fluorescence assay
[14] = VIM-1 enzyme, CCF2-FA fluorescence assay, read-out: VIM-1 IC50
[15] = Escherichia coli expressing NDM-1 (CLB30016), 95% growth inhibition
[16] = Klebsiella pneumoniae expressing VIM-1 (IHMA599644), 95% growth inhibition
[17] = Serratia marcescens expressing IMP-1 (CL5741), 95% growth inhibition
[18] = VIM-1 IC50, VIM-1 enzyme, CCF2-FA substrate

Chain of NDM-1 (C7C422 whole entry, looked up, species assumed): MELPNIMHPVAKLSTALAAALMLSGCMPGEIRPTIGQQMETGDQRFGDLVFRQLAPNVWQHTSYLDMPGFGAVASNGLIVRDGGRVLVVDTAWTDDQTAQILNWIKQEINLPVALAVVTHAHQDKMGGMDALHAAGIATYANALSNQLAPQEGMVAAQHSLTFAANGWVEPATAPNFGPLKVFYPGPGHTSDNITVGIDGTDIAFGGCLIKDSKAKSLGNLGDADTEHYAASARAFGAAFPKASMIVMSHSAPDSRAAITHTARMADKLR
Chain of IMP-1 (P52699 whole entry, looked up): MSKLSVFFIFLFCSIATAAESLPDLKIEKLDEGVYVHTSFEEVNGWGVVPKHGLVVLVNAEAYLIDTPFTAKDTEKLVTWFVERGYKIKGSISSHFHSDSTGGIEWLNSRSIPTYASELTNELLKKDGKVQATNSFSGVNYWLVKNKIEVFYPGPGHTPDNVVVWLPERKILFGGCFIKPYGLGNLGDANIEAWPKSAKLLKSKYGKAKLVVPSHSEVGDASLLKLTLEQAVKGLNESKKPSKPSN

| SMILES | IC50 (NDM-1; [4]) [nM] | IC50 (IMP-1; [5]) [nM] | IC50 (VIM-1; [6]) [nM] | Escherichia coli MITC95 [1, 7] [µM] | Klebsiella pneumoniae MITC95 [2, 8] [µM] | Serratia marcescens MITC95 [3, 9] [µM] | further results |
| --- | --- | --- | --- | --- | --- | --- | --- |
| NC(=O)CN1CCC(Cc2ccc(-c3ccc(C4CNC4)cc3)c(-c3nn[nH]n3)c2S(N)(=O)=O)CC1 [Example 609, 2-[4-[[4-[4-(azetidin-3-yl)phenyl]-2-sulfamoyl-3-(2H-tetrazol-5-yl)phenyl]methyl]-1-piperidyl]acetamide] | 21.3 | 83.9 | 1.64 | 6.25 | 3.125 | 12.5 | – |
| NS(=O)(=O)c1cccc(-c2cccc3c2OCC3=O)c1-c1nn[nH]n1 [Example 521, 3-(3-Oxo-2,3-dihydrobenzofuran-7-yl)-2-(2H-tetrazol-5-yl)benzenesulfonamide] | 3.44 | 559 | 19.7 | 1.563 | 12.5 | 12.5 | – |
| NCC1CCC(N2CC(c3ccc(-c4ccc(C(F)(F)F)c(S(N)(=O)=O)c4-c4nnn[nH]4)cc3)C2)CC1 (stereo not drawn) [Example 813, 4′-{1-[4-(aminomethyl)cyclohexyl]azetidin-3-yl}-2-(1H-tetrazol-5-yl)-4-(trifluoromethyl)biphenyl-3-sulfonamide] | – | – | – | – | – | – | IC50 (NDM-1; [10]): 6.27 nM; IC50 (IMP-1; [10]): 9.86 nM; IC50 (VIM-1; VIM-1 IC50, fluorescence assay with CCF2-FA substrate): 20.6 nM; Escherichia coli MITC95 ([1]; CLB30016 (NDM-1), 95% inhibition of bacterial growth): 6.25 µM; Klebsiella pneumoniae MITC95 ([2]; IHMA599644 (VIM-1), 95% inhibition of bacterial growth): 100 µM; Serratia marcescens MITC95 ([3]; CL5741 (IMP-1), 95% inhibition of bacterial growth): 6.25 µM |
| Cc1cccn2c(-c3cccc(S(N)(=O)=O)c3-c3nnn[nH]3)cnc12 [Example 139, 3-(8-methylimidazo[1,2-a]pyridin-3-yl)-2-(1H-tetrazol-5-yl)benzenesulfonamide] | – | – | – | – | – | – | IC50 (NDM-1; [10]): 0.637 nM; IC50 (IMP-1; [10]): 98.4 nM; IC50 (VIM-1; [11]): 5.78 nM; Escherichia coli expressing NDM-1 (CLB 30016) MITC95 [1]: 0.1953 µM; Klebsiella pneumoniae expressing VIM-1 (IHMA 599644) MITC95 [2]: 12.5 µM; Serratia marcescens expressing IMP-1 (CL5741) MITC95 [3]: 6.25 µM |
| NS(=O)(=O)c1cccc(-c2ccc(CNC[C@@]3(O)CCOC3)cc2)c1-c1nnn[nH]1 [Example 373, 4′-[({[(3S)-3-hydroxytetrahydrofuran-3-yl]methyl}amino)methyl]-2-(1H-tetrazol-5-yl)biphenyl-3-sulfonamide] | – | – | – | – | – | – | IC50 (NDM-1; [12]): 11.3 nM; IC50 (IMP-1; [13]): 247 nM; IC50 (VIM-1; [14]): 241 nM; Escherichia coli MITC95 [1, 15]: 1.563 µM; Klebsiella pneumoniae MITC95 [2, 16]: 50 µM; Serratia marcescens MITC95 [3, 17]: 3.125 µM |
| NS(=O)(=O)c1cccc(-c2ccc(C3CCN(CC4CNC4)CC3)cc2)c1-c1nnn[nH]1 [Example 617, 3-[4-[1-(azetidin-3-ylmethyl)-4-piperidyl]phenyl]-2-(1H-tetrazol-5-yl)benzenesulfonamide] | 10 | 9.66 | 334 | 0.25 | 37.5 | 0.2969 | – |
| Nc1nc2ccc(-c3ccc(C(F)(F)F)c(S(N)(=O)=O)c3-c3nnn[nH]3)cc2[nH]1 [Example 552, 3-(2-amino-3H-benzimidazol-5-yl)-2-(1H-tetrazol-5-yl)-6-(trifluoromethyl)benzenesulfonamide] | 1.32 | 7.2 | – | 0.3906 | 1.563 | 1.563 | IC50 (VIM-1; [18]): 0.262 nM |
| NS(=O)(=O)c1cccc(COc2ccccc2)c1-c1nnn[nH]1 [Example 142, 3-(phenoxymethyl)-2-(1H-tetrazol-5-yl)benzenesulfonamide] | – | – | – | – | – | – | IC50 (NDM-1; [10]): 8.2 nM; IC50 (IMP-1; [10]): 81 nM; IC50 (VIM-1; [11]): 419 nM; Escherichia coli expressing NDM-1 (CLB 30016) MITC95 [1]: 1.563 µM; Klebsiella pneumoniae expressing VIM-1 (IHMA 599644) MITC95 [2]: >200 µM; Serratia marcescens expressing IMP-1 (CL5741) MITC95 [3]: 6.25 µM |
| NCCCc1ccc(-c2ccc(C(F)(F)F)c(S(N)(=O)=O)c2-c2nnn[nH]2)cc1 [Example 735, 4′-(3-aminopropyl)-2-(1H-tetrazol-5-yl)-4-(trifluoromethyl)biphenyl-3-sulfonamide] | 3.03 | 1.7 | 0.388 | 3.125 | 6.25 | 3.125 | – |
| NS(=O)(=O)c1c(C(F)(F)F)ccc(N2CC[C@H](CO)[C@H](F)C2)c1-c1nnn[nH]1 [Example 663, 3-[(3S,4R)-3-fluoro-4-(hydroxymethyl)piperidin-1-yl]-2-(1H-tetrazol-5-yl)-6-(trifluoromethyl)benzenesulfonamide] | 2.46 | 2.94 | 0.79 | 0.8906 | 3.125 | 0.125 | – |
| CN(CC(=O)O)Cc1ccc(-c2cccc(S(N)(=O)=O)c2-c2nnn[nH]2)cc1 [Example 364, N-methyl-N-{[3′-sulfamoyl-2′-(1H-tetrazol-5-yl)biphenyl-4-yl]methyl}glycine] | – | – | – | – | – | – | IC50 (NDM-1; [12]): 9.17 nM; IC50 (IMP-1; [13]): 100 nM; IC50 (VIM-1; [14]): 212 nM; Escherichia coli MITC95 [1, 15]: 1.563 µM; Klebsiella pneumoniae MITC95 [2, 16]: 25 µM; Serratia marcescens MITC95 [3, 17]: 3.125 µM |
| Cc1cnc(-c2cccc(S(N)(=O)=O)c2-c2nn[nH]n2)cn1 [Example 248, 3-(5-Methylpyrazin-2-yl)-2-(2H-tetrazol-5-yl)benzenesulfonamide] | – | – | – | – | – | – | IC50 (NDM-1; [12]): 4.49 nM; IC50 (IMP-1; [13]): 134 nM; IC50 (VIM-1; [14]): 132 nM; Escherichia coli MITC95 [1, 15]: 0.1875 µM; Klebsiella pneumoniae MITC95 [2, 16]: 12.5 µM; Serratia marcescens MITC95 [3, 17]: 4.688 µM |
| NS(=O)(=O)c1c(C(F)(F)F)ccc(-c2ccc(C3CCN(CC4CCCNC4)CC3)cc2)c1-c1nnn[nH]1 (stereo not drawn) [Example 673, 4′-[1-(piperidin-3-ylmethyl)piperidin-4-yl]-2-(1H-tetrazol-5-yl)-4-(trifluoromethyl)biphenyl-3-sulfonamide] | 10.1 | 1.35 | 9.07 | 3.125 | 62.5 | 3.125 | – |
| NC[C@H]1CC[C@H](c2ccc(CC3CCNCC3)c(S(N)(=O)=O)c2-c2nn[nH]n2)CC1 [Example 590, 3-((1r,4r)-4-(aminomethyl)cyclohexyl)-6-(piperidin-4-ylmethyl)-2-(2H-tetrazol-5-yl)benzenesulfonamide] | 8.27 | 24.5 | 8.35 | 1.172 | 2.344 | 2.344 | – |
| NCCCCCNc1nc2c(-c3cccc(S(N)(=O)=O)c3-c3nnn[nH]3)cccc2s1 [Example 644, 3-[2-(5-aminopentylamino)-1,3-benzothiazol-4-yl]-2-(1H-tetrazol-5-yl)benzenesulfonamide] | 1.34 | 32.4 | – | 4.688 | 75 | 37.5 | IC50 (VIM-1; [18]): 13.8 nM |
| CN(CCO)Cc1ccc(-c2cccc(S(N)(=O)=O)c2-c2nnn[nH]2)cc1 [Example 335, 4′-(((2-hydroxyethyl)(methyl)amino)methyl)-2-(1H-tetrazol-5-yl)-[1,1′-biphenyl]-3-sulfonamide] | – | – | – | – | – | – | IC50 (NDM-1; [12]): 15 nM; IC50 (IMP-1; [13]): 228 nM; IC50 (VIM-1; [14]): 227 nM; Escherichia coli MITC95 [1, 15]: 0.3906 µM; Klebsiella pneumoniae MITC95 [2, 16]: 25 µM; Serratia marcescens MITC95 [3, 17]: 3.125 µM |
